What was measured:
barnyardgrass [1] = assay: Test C preemergence; format: in vivo, Echinochloa crusgalli; details: 0 to 100 scale (0 no effect, 100 complete control)
In short: (§1)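 Test material, in non-phytotoxic solvent with surfactant, was sprayed on the soil directly after seeding (preemergence) or on young plants of 2–10 cm with one to two leaves (postemergence). Greenhouse, 10 days; 0–100 visual control scale.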

blackgrass [2] = assay: Test C preemergence; format: in vivo, Alopecurus myosuroides; details: 0 to 100 scale (0 no effect, 100 complete control)
In short: as §1

corn [3] = assay: Test C preemergence; format: in vivo, Zea mays; details: 0 to 100 scale (0 no effect, 100 complete control)
In short: as §1

green foxtail [4] = assay: Test C preemergence; format: in vivo, Setaria viridis; details: 0 to 100 scale (0 no effect, 100 complete control)
In short: as §1

kochia [5] = assay: Test C preemergence; format: in vivo, Bassia scoparia; details: 0 to 100 scale (0 no effect, 100 complete control)
In short: as §1

oat, wild [6] = assay: Test C preemergence; format: in vivo, Avena fatua; details: Preemergence, 500 g ai/ha; visual rating after 10 days, 0 to 100 scale (0 no effect, 100 complete control)
In short: as §1

pigweed, palmer [7] = assay: Test C preemergence; format: in vivo, Amaranthus palmeri; details: 0 to 100 scale (0 no effect, 100 complete control)
In short: as §1

ragweed [8] = assay: Test C preemergence; format: in vivo, Ambrosia artemisiifolia; details: 0 to 100 scale (0 no effect, 100 complete control)
In short: as §1

ryegrass, Italian [9] = assay: Test C preemergence; format: in vivo, Lolium multiflorum; details: 0 to 100 scale (0 no effect, 100 complete control)
In short: as §1

soybean [10] = assay: Test C preemergence; format: in vivo, Glycine max; details: 0 to 100 scale (0 no effect, 100 complete control)
In short: as §1

wheat [11] = assay: Test C preemergence; format: in vivo, Triticum aestivum; details: 0 to 100 scale (0 no effect, 100 complete control)
In short: as §1

barnyardgrass [12] = assay: Test C postemergence; format: in vivo, Echinochloa crusgalli; details: 10 days
In short: as §1

blackgrass [13] = assay: Test C postemergence; format: in vivo, Alopecurus myosuroides; details: 10 days
In short: as §1

corn [14] = assay: Test C postemergence; format: in vivo, Zea mays; details: 10 days
In short: as §1

green foxtail [15] = assay: Test C postemergence; format: in vivo, Setaria viridis; details: 10 days
In short: as §1

kochia [16] = assay: Test C postemergence; format: in vivo, Bassia scoparia; details: 10 days
In short: as §1

oat, wild [17] = assay: Test C postemergence; format: in vivo, Avena fatua; details: 10 days
In short: as §1

pigweed, palmer [18] = assay: Test C postemergence; format: in vivo, Amaranthus palmeri; details: 10 days
In short: as §1

ragweed [19] = assay: Test C postemergence; format: in vivo, Ambrosia artemisiifolia; details: 10 days
In short: as §1

ryegrass, Italian [20] = assay: Test C postemergence; format: in vivo, Lolium multiflorum; details: 10 days
In short: as §1

soybean [21] = assay: Test C postemergence; format: in vivo, Glycine max; details: 10 days
In short: as §1

wheat [22] = assay: Test C postemergence; format: in vivo, Triticum aestivum; details: 10 days
In short: as §1

horseweed = assay: Test C postemergence; format: in vivo, Erigeron canadensis; details: 10 days
In short: as §1

barnyardgrass [23] = assay: Test D flooded paddy test; format: in vivo, Echinochloa crus-galli; details: 250 g ai/ha, applied to paddy water, visual rating after 13 to 14 days, scale 0 to 100 (0 no effect, 100 complete control)
In short: (§2)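 Visual ratings from 0, meaning no effect, to 100, meaning complete control, were assigned against untreated controls 13 to 14 days after compounds were added to the floodwater of pots kept 3 cm deep, with plants at the 2-leaf stage.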

ducksalad = assay: Test D flooded paddy test; format: in vivo, Heteranthera limosa; details: 250 g ai/ha, applied to paddy water, visual rating after 13 to 14 days, scale 0 to 100 (0 no effect, 100 complete control)
In short: as §2

rice = assay: Test D flooded paddy test; format: in vivo, Oryza sativa; details: 250 g ai/ha, applied to paddy water, visual rating after 13 to 14 days, scale 0 to 100 (0 no effect, 100 complete control)
In short: as §2

sedge, umbrella = assay: Test D flooded paddy test; format: in vivo, Cyperus difformis; details: 250 g ai/ha, applied to paddy water, visual rating after 13 to 14 days, scale 0 to 100 (0 no effect, 100 complete control)
In short: as §2

[24] = Preemergence, 500 g ai/ha, visual rating after 10 days
[25] = Test C, preemergence, 125 g ai/ha
[26] = 125 g ai/ha, postemergence, 0 to 100 scale, 0 no effect, 100 complete control
[27] = Postemergence, 500 g ai/ha, visual 0 to 100 scale (0 no effect, 100 complete control)

C[C@H]1CN(C(=O)c2cccc(-c3ncccn3)c2)c2cccc(Cl)c2O1 [Compound 203]
40: Plant response rating, Kochia (kochia [16]; [27]) | Plant response rating, Pigweed, Palmer (pigweed, palmer [18]; [27])
70: Plant response rating, Pigweed, Palmer (pigweed, palmer [7]; [24])
30: Plant response rating, Kochia (kochia [5]; [24])
20: Foxtail, Green plant response rating (green foxtail [4]; [25]) | Pigweed, Palmer plant response rating (pigweed, palmer [7]; [25]) | Plant response rating, Ryegrass, Italian (ryegrass, Italian [9]; [24]) | Plant response rating, Ragweed (ragweed [19]; [27])
10: Plant response rating, Corn (corn [14]; [27]) | Plant response rating, Foxtail, Green (green foxtail [15]; [27]) | Plant response rating, Oat, Wild (oat, wild [17]; [27]) | Plant response rating, Wheat (wheat [22]; [27])
100: Plant response rating, Soybean (soybean [21]; [26]) | Plant response rating, Soybean (soybean [21]; [27])
0: Plant response rating, Barnyardgrass (barnyardgrass [1]; [24]) | Barnyardgrass plant response rating (barnyardgrass [1]; [25]) | Plant response rating, Blackgrass (blackgrass [2]; [24]) | Blackgrass plant response rating (blackgrass [2]; [25]) | Plant response rating, Corn (corn [3]; [24]) | Corn plant response rating (corn [3]; [25]) | Kochia plant response rating (kochia [5]; [25]) | Plant response rating, Oat, Wild (oat, wild [6]) | Plant response rating, Ragweed (ragweed [8]; [24]) | Ragweed plant response rating (ragweed [8]; [25]) | Ryegrass, Italian plant response rating (ryegrass, Italian [9]; [25]) | Plant response rating, Soybean (soybean [10]; [24]) | Soybean plant response rating (soybean [10]; [25]) | Plant response rating, Wheat (wheat [11]; [24]) | Wheat plant response rating (wheat [11]; [25]) | Plant response rating, Barnyardgrass (barnyardgrass [12]; [26]) | Plant response rating, Barnyardgrass (barnyardgrass [12]; [27]) | Plant response rating, Blackgrass (blackgrass [13]; [26]) | Plant response rating, Blackgrass (blackgrass [13]; [27]) | Plant response rating, Corn (corn [14]; [26]) | Plant response rating, Foxtail, Green (green foxtail [15]; [26]) | Plant response rating, Kochia (kochia [16]; [26]) | Plant response rating, Oat, Wild (oat, wild [17]; [26]) | Plant response rating, Pigweed, Palmer (pigweed, palmer [18]; [26]) | Plant response rating, Ragweed (ragweed [19]; [26]) | Plant response rating, Ryegrass, Italian (ryegrass, Italian [20]; [26]) | Plant response rating, Ryegrass, Italian (ryegrass, Italian [20]; [27]) | Plant response rating, Wheat (wheat [22]; [26]) | Plant response rating, Horseweed (horseweed; [26]) | Plant response rating, Horseweed (horseweed; [27]) | Plant response rating, Barnyardgrass (Flood) (barnyardgrass [23]) | Plant response rating, Ducksalad (Flood) (ducksalad) | Plant response rating, Rice (Flood) (rice) | Plant response rating, Sedge, Umbrella (Flood) (sedge, umbrella)
60: Plant response rating, Foxtail, Green (green foxtail [4]; [24])

Source: patent US20260262643A1, “HERBICIDAL BENZOXAZINES” (FMC CORPORATION, priority 2022, published 2026)
